Data taken from PubChem BioAssay (NCI).
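Each compound was tested at five concentrations against cells in 96-well plates for 48 hours. The concentration for 50% growth inhibition is given as GI50. TGI denotes the concentration required for complete inhibition of growth.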

What was measured:
Assay in all cases: DTP human tumour cell line panel, 48 h
[1] = system: T-47D breast
[2] = system: OVCAR-5 ovarian
[3] = system: OVCAR-4 ovarian
[4] = system: DU-145 prostate
[5] = system: SNB-19 CNS
[6] = system: M14 melanoma
[7] = system: UACC-62 melanoma
[8] = system: OVCAR-8 ovarian
[9] = system: UO-31 renal
[10] = system: EKVX NSCLC

SMILES	GI50 [1] [µM]	TGI [1] [µM]	GI50 [2] [µM]	TGI [2] [µM]	GI50 [3] [µM]	TGI [3] [µM]	GI50 [4] [µM]	TGI [4] [µM]	GI50 [5] [µM]	TGI [5] [µM]	GI50 [6] [µM]	TGI [6] [µM]	GI50 [7] [µM]	TGI [7] [µM]	GI50 [8] [µM]	TGI [8] [µM]	GI50 [9] [µM]	TGI [9] [µM]	TGI [10] [µM]	GI50 [10] [µM]
O=C1CSC(=S)N1Cc1cccnc1	11.1	32.7	13.2	26.8	7.78	25.4	2.4	5.71	47.8	> 100	15.3	39.4	11.3	24.7	11.3	38	4.61	17.6	–	–
Cn1cnc([N+](=O)[O-])c1SC1=NCCS1	–	–	–	> 100	–	> 100	–	–	–	> 100	–	> 100	–	> 100	–	> 100	–	> 100	> 100	–
O=C1/C(=C/c2ccc([N+](=O)[O-])o2)Oc2ccccc21	1.24	4.34	1.85	3.5	1.61	3.65	1.91	3.73	5.06	18.6	1.69	3.88	1.47	2.93	1.35	3.82	1.07	2.86	–	–
C=C(C)[C@@H]1CC[C@]2(C(=O)O)CC[C@]3(C)[C@H](CC[C@@H]4[C@@]5(C)C[C@@H](CC#Cc6ccc(Br)cc6)C(=O)C(C)(C)[C@@H]5CC[C@]43C)[C@@H]12	9.02	> 100	94.3	> 100	4.95	> 100	7.59	> 100	6.19	64.8	2.67	12.2	2.69	8.34	5.84	> 100	> 100	> 100	–	–
O=C1CCCC(=O)C1=C(O)CCCCCCCCCCc1ccccc1	–	–	–	74.6	–	> 100	–	–	–	> 100	–	> 100	–	> 100	–	> 100	–	60.1	> 100	–
COC(=O)c1oc2c(O)c(OC)c(Br)cc2c1C	–	–	–	–	–	–	–	–	22.9	46.1	22.6	42.6	14.7	30.7	28.7	91.7	46.9	> 100	49.1	23.8
O=C1Cc2ccccc2N1c1c(Cl)cccc1Cl	–	–	–	> 100	–	> 100	–	–	–	> 100	–	> 100	–	> 100	–	> 100	–	> 100	> 100	–
C#C[C@@]1(O)CCCC2=CC(=O)C[C@]21C	–	–	–	> 100	–	–	–	–	–	> 100	–	> 100	–	–	–	> 100	–	> 100	> 100	–
Oc1ccc2c3c1OC1C(=NN=C4CCC5(O)C6Cc7ccc(O)c8c7C5(CCN6CC5CC5)C4O8)CCC4(O)C(C2)N(CC2CC2)CCC314 (centres undefined)	–	–	–	> 100	–	> 66	–	–	–	> 100	–	33.4	–	41.2	–	84	–	> 100	> 85.2	–
S=P1(c2ccccc2)Nc2ccc(Cl)cc2N1 (centres undefined)	–	–	–	> 100	–	> 100	–	–	–	> 100	–	56.9	–	26.4	–	–	–	> 100	> 100	–
COc1ccc(NC(=O)COC(=O)c2cccc3c(=O)c4ccccc4[nH]c23)cc1	–	–	–	–	–	38.4	–	–	–	> 100	–	90.7	–	33.1	–	55.9	–	36.4	96.2	–
N#CCCN(CCC#N)c1ccc(/C=N\c2nc(-c3ccccc3)cs2)cc1	–	–	–	> 100	–	> 100	–	–	–	> 100	–	> 100	–	> 100	–	> 100	–	> 100	> 100	–
O=C(CC(O)c1ccncc1)c1ccccc1 (centres undefined)	25.7	> 100	37.6	> 100	20.5	> 100	45.5	> 100	34.1	> 100	28.6	> 100	32	> 100	33.8	> 100	22.1	> 100	–	–
CCCCCCCCCCCCCC(=O)OC(/C=C/C(C)C)C(O)C(O)C(OC)C(=O)NC1CCCCNC1=O (centres undefined)	–	–	–	9.63	3.97	6.76	–	–	–	9.08	2.61	4.35	4.28	3.74	2.77	5.08	–	4.98	11.5	–
Cn1cnc([N+](=O)[O-])c1Sc1nc2cccnc2s1	–	–	–	> 100	–	25.2	–	–	–	> 100	–	26.8	–	32	–	90.1	–	34.1	33.8	–
